This assay has as its system Human epidermal keratinocytes (HaCaT cells). The experiment in a line: "scrape" in vitro wound healing model (wound closure of a scraped confluent monolayer). The format is cell-based. To be noted: for wound width, day 1: day 1 (24 hours); for wound width, day 2: day 2 (48 hours); for ability to enhance keratinocyte wound closure compared with thyroglobulin and TGF-β1 inhibitor: at all concentrations of agents. The procedure: The “scrape” in vitro wound healing model has been previously presented in the literature (Li, F. et al., 2000, Exp Cell Res., 258(2): 245-253; Firth J. D. et al., 2004, J. Invest. Dermatol., 122(1): 222-231). In this model a scrape across a confluent monolayer of cells is used to simulate a wound and the effect of agents added to serum free media is tested on the rate of closure of the gap.
Human epidermal keratinocytes (HaCaT cells) were plated at a density of 1×10^5 cells/well into Nunc 6 well plates in Dulbecco's Modified Eagle Medium (DMEM) containing 10% fetal bovine serum (FBS) benzyl penicillin (100 IU/ml), streptomycin […] confluence (2 days) monolayers were “wounded” with a 1 ml pipette tip (0.5 mm width) by scraping the tip across the centre of the well. The wells were then washed 5 times with DMEM. One ml of either DMEM with 10% FBS, DMEM or DMEM with: 3, 6, 12 or 24 mgs/ml bovine fetuin A (Sigma), 6.25, 12.5, 25 or 50 μg/ml peptide TGF peptide antagonist (Corresponding to residues 41-65 of TGFβ-1-3:—Huang S. S. et al., 1997, Journal of Biological Chemistry, 272(43):27155-27159) and 2.1, 4.2, 8.4 and 16.8 mg/ml bovine thyroglobulin was added to each well (2 replicates per plate, 4 plates). These concentrations were calculated to have equivalent antagonistic effect on the binding of TGFβ-1 to its receptor for each of the compounds. All DMEM solutions used contained benzyl penicillin (100 IU/ml), streptomycin ([…]) and fungizone (250 mg/ml). A mark was placed on the base of each well at right angles to the “wound” and the wound was photographed at the intersection of the mark and wound with a Nikon EOS 300 digital camera fitted to a JenaMed (Ziess Jena) inverted microscope (50×). Images were taken at the same positions 24 and 48 hours after addition of the treatment media. Digital images were analysed with Image Pro (Media Cybernetics) image analysis software and an image of a Nikon stage micrometer was used for calibration of length measurements. Results were summarized as the wound width after 24 and 48 hours.

The mark [1] stands for this setting: 3 mgs/ml bovine fetuin A in DMEM.
The mark [2] stands for this setting: 6 mgs/ml bovine fetuin A in DMEM.
Setting [3] is: 12 mgs/ml bovine fetuin A in DMEM.
Where [4] appears, read: 24 mgs/ml bovine fetuin A in DMEM.

Here are results for one substance from US20090130070A1, “METHOD OF TREATMENT” (The University of Queensland, priority 2004, published 2009).

Take “Fetuin: bovine fetuin A (Sigma); glycoprotein also called alpha2-Heremans-Schmid-glycoprotein (AHSG)”: the “wound width, day 0” value reads like this: under setting [1], 0.7602; under setting [2], 0.7332; under setting [3], 0.7231; under setting [4], 0.6724. Moreover, the “wound width, day 1” value is on record as 0.4265 under setting [1], 0.3938 under setting [2], 0.3699 under setting [3] and 0.3806 under setting [4]. In addition, the “wound width, day 2” value reads like this: under setting [1], 0.02947; under setting [2], 0.01441; under setting [3], 0.000259; under setting [4], 0.04348. Further, the “ability to enhance keratinocyte wound closure compared with thyroglobulin and TGF-β1 inhibitor” value by setting is: (listed as fetuin) “markedly more effective than either thyroglobulin or a TGF-β1 inhibitor”; (listed as fetuin A) “significantly greater ability than thyroglobulin and TGFβ1 to enhance keratinocyte wound closure”.
